Results published in patent EP0565593B1, “REDUCING PESTICIDAL INTERACTIONS IN CROPS” (priority 1990, dated 1992).
Where two headings read alike, the source gives them in different places.

Legend:
[1] = test system: SJCA; assay: Greenhouse test Procedure IV: herbicide, biocide and antidote PPI, weed SJCA (Examples 53-55; Tables 52-54); format: in vivo; conditions: all PPI; for % Inhibition SJCA: Herbicide No. 1, rate printed as '-'
Description: The test in this example paralleled that in Example 51, except the procedure was according to Procedure IV above and the herbicides used were No. 1 (MON-12000); No. 21 (XRD-498) and, again, No. 18 (PURSUIT); the biocide was, again, MOCAP®. Observations were taken thirteen (13) days after PPI treatment with biocide and antidote.
This test was identical to that in Example 52, except for use of a different biocide, DIAZINON (Biocide No. 5, a nematicide and soil insecticide).
This test was also identical to that in the preceding two examples, except that the biocide was malathion (No. 7, an insecticide).
This test was identical to the preceding ones, except the biocide was DPX-43898 (No. 6, active ingredient in FORTRESS® insecticide, a soil insecticide). Also, the observation time was fourteen (14) days after PPI initiation.

[2] = test system: Corn; assay: Greenhouse test, combination of Procedures II and III: insecticide in-furrow or in cover layer, herbicide and antidote incorporated in cover layer (Examples 1-3, 6; Tables 1-3, 6); format: in vivo; conditions: for % Injury Corn / % Corn Injury PN 3320 / % Corn Injury PN 3377: 3 weeks; for Percent Injury Corn: 7 weeks
[3] = test system: Corn; assay: whole plant or invertebrate; conditions: Zea mays, iv, 312 h
[4] = Ex. 6: Insecticide 1 0.23 Kg/305m + Herbicide 1 0.14 Kg/Ha
[5] = Ex. 6: Insecticide 1 0.23 Kg/305m + Herbicide 1 0.56 Kg/Ha
[6] = Ex. 6: Insecticide 2 0.23 Kg/305m + Herbicide 1 0.14 Kg/Ha
[7] = Ex. 6: Insecticide 2 0.23 Kg/305m + Herbicide 1 0.56 Kg/Ha

COC(=O)c1c(Cl)nn(C)c1S(=O)(=O)NC(=O)Nc1nc(OC)cc(OC)n1 [Herbicide No. 1, N-[(4,6-dimethoxypyrimidin-2-yl)aminocarbonyl]-3-chloro-4-methoxycarbonyl-5-sulfonamide, reference compound]
inhibition at 140 g/ha ([1]; 312 h, Table 52, Herbicide No. 1 0.14 Kg/Ha, where applied Biocide No. 5 8.96 kg/Ha and antidote 4.48 Kg/Ha, observed 13 days after treatment): 70% | % Inhibition SJCA ([1]; Table 53, where applied Biocide No. 7 8.96 kg/Ha and antidote 4.48 Kg/Ha, observed 13 days after treatment): 75% | % Inhibition SJCA ([1]; Table 54, where applied Biocide No. 6 8.96 kg/Ha and antidote 4.48 Kg/Ha, observed 14 days after PPI initiation): 65% | % Injury Corn ([2]; Ex. 2: Herbicide 1 0.14 Kg/Ha): 4% | % Injury Corn ([2]; Ex. 2: Herbicide 1 0.56 Kg/Ha): 58% | injury to corn ([2]; Ex. 2: Herbicide No. 1 0.14 kg/ha + Insecticide No. 2, no antidote): 65% | % Injury Corn ([2]; Ex. 2: Insecticide 1 0.11 kg/305m + Herbicide 1 0.14 Kg/Ha): 83% | % Injury Corn ([2]; Ex. 2: Insecticide 1 0.11 kg/305m + Herbicide 1 0.56 Kg/Ha): 93% | % Injury Corn ([2]; Ex. 2: Insecticide 1 0.23 Kg/305m + Herbicide 1 0.14 + Herbicide 2 4.48 Kg/Ha): 90% | % Injury Corn ([2]; Ex. 2: Insecticide 1 0.23 Kg/305m + Herbicide 1 0.14 Kg/Ha): 83% | % Injury Corn ([2]; Ex. 2: Insecticide 1 0.23 Kg/305m + Herbicide 1 0.56 Kg/Ha): 96% | % Injury Corn ([2]; Ex. 2: Insecticide 2 3.36 Kg/Ha + Herbicide 1 0.14 + Herbicide 2 4.48 Kg/Ha): 83% | % Injury Corn ([2]; Ex. 3: Herbicide 1 0.14 Kg/Ha): 10% | % Injury Corn ([2]; Ex. 3: Herbicide 1 0.56 Kg/Ha): 63% | % Injury Corn ([2]; Ex. 3: Insecticide 3 (227 g) + Herbicide 1 0.14 + Herbicide 2 4.48 Kg/Ha): 73% | % Injury Corn ([2]; Ex. 3: Insecticide 3 (227g) + Herbicide 1 0.14 Kg/Ha): 45% | % Injury Corn ([2]; Ex. 3: Insecticide 3 (227g) + Herbicide 1 0.56 Kg/Ha): 93% | % Injury Corn ([2]; Ex. 3: Insecticide 4 (227g) + Herbicide 1 0.14 + Herbicide 2 4.48 Kg/Ha): 88% | % Injury Corn ([2]; Ex. 3: Insecticide 4 (227g) + Herbicide 1 0.14 Kg/Ha): 55% | % Injury Corn ([2]; Ex. 3: Insecticide 4 (227g) + Herbicide 1 0.56 Kg/Ha): 45% | % Corn Injury PN 3320 ([2]; Ex. 6: Herbicide 1 0.14 Kg/Ha): 85% | % Corn Injury PN 3377 ([2]; Ex. 6: Herbicide 1 0.14 Kg/Ha): 12% | % Corn Injury PN 3320 ([2]; Ex. 6: Herbicide 1 0.56 Kg/Ha): 88% | % Corn Injury PN 3377 ([2]; Ex. 6: Herbicide 1 0.56 Kg/Ha): 23% | % Corn Injury PN 3320 [2, 4]: 95% | % Corn Injury PN 3377 [2, 4]: 78% | % Corn Injury PN 3320 [2, 5]: 95% | % Corn Injury PN 3377 [2, 5]: 90% | % Corn Injury PN 3320 [2, 6]: 85% | % Corn Injury PN 3377 [2, 6]: 48% | % Corn Injury PN 3320 [2, 7]: 88% | % Corn Injury PN 3377 [2, 7]: 90% | Percent Injury Corn ([2]; Herbicide 1 0.14 Kg/Ha): 18% | Percent Injury Corn ([2]; Herbicide 1 0.56 Kg/Ha): 58% | Percent Injury Corn ([2]; Herbicide 1 2.24 Kg/Ha): 85% | Percent Injury Corn ([2]; Insecticide 1 0.23 kg/305m + Herbicide 1 0.14 Kg/Ha): 85% | Percent Injury Corn ([2]; Insecticide 1 0.23 kg/305m + Herbicide 1 0.56 Kg/Ha): 97% | Percent Injury Corn ([2]; Insecticide 1 0.23 kg/305m + Herbicide 1 2.24 Kg/Ha): 95% | Percent Injury Corn ([2]; Insecticide 2 3.36 kg/ha + Herbicide 1 0.14 Kg/Ha): 60% | Percent Injury Corn ([2]; Insecticide 2 3.36 kg/ha + Herbicide 1 0.56 Kg/Ha): 90% | Percent Injury Corn ([2]; Insecticide 2 3.36 kg/ha + Herbicide 1 2.24 Kg/Ha): 95% | inhibition at 140 g/ha ([3]; read-out: % Inhibition Corn, Herb. No. 1 0.14 kg/Ha alone, PPI, 13 days after planting): 10% | inhibition at 140 g/ha ([3]; read-out: % Inhibition Corn, Table 51, Herbicide No. 1 0.14 Kg/Ha, where applied Biocide No. 8 8.96 kg/Ha and antidote 4.48 Kg/Ha, all PPI, observed 13 days after treatment): 0% | inhibition at 140 g/ha ([3]; read-out: % Inhibition Corn, Table 52, Herbicide No. 1 0.14 Kg/Ha, where applied Biocide No. 5 8.96 kg/Ha and antidote 4.48 Kg/Ha, all PPI, observed 13 days after treatment): 0%
